Literature values as cited in patent publication US6858233B2, “Simmondsin processing methods and products” (International Flora Technologies, Ltd., priority 2001, dated 2005).

Columns and labels:
animals = details: reported in the literature
rats = details: relative to simmondsin, Cokelaere et al. 1996

| Compound | ability to cause food intake reduction (animals) | efficacy compared to simmondsin (food intake reduction) (rats) |
| --- | --- | --- |
| N#C/C=C1\[C@H](O[C@@H]2O[C@H](CO)[C@@H](O)[C@H](O)[C@H]2O)C[C@H](O)[C@H](O)[C@H]1O [didemethyl simmondsin] | thought not to have such efficacy |  |
| CO[C@H]1[C@@H](OC)C[C@@H](O[C@@H]2O[C@H](CO)[C@@H](O)[C@H](O)[C@H]2O)/C(=C\C#N)[C@@H]1O [simmondsin] | significant food intake reduction |  |
| simmondsin ferulate | significant food intake reduction | about 67% |
